Apparent lung-selectivity index data for one molecule are collected here from patent publication US7829728B2, “Diarymethyl and related compounds” (Theravance, Inc., priority 2003, dated 2010).

The experiment concerns guinea pigs, pilocarpine-evoked salivation. Description: Inhalation guinea pig salivation assay (Assay Test Procedure H). The experiment is classed as in vivo. To be noted: ratio of anti-sialagogue ID50 to bronchoprotective ID50, guinea pig. As to the method: Guinea pigs (Charles River, Wilmington, Mass.) weighing 200-350 g are acclimated to the in-house guinea pig colony for at least 3 days following arrival. Test compound or vehicle are dosed via inhalation (IH) over a 10 minute time period in a pie shaped dosing chamber (R+S Molds, San Carlos, Calif.). Test solutions are dissolved in sterile water and delivered using a nebulizer filled with 5.0 mL of dosing solution. Guinea pigs are restrained in the inhalation chamber for 30 minutes. During this time, guinea pigs are restricted to an area of approximately 110 sq. cm. This space is adequate for the animals to turn freely, reposition themselves, and allow for grooming. […] Upon completion of nebulization, guinea pigs are evaluated at 1.5, 6, 12, 24, 48, or 72 hrs after treatment.
Guinea pigs are anesthetized one hour before testing with an intramuscular (IM) injection of a mixture of ketamine 43.75 mg/kg, xylazine 3.5 mg/kg, and acepromazine 1.05 mg/kg at an 0.88 mL/kg volume. […] Saliva is collected for 10 minutes, at which point the gauze pad is weighed and the difference in weight recorded to determine the amount of accumulated saliva (in mg). The mean amount of saliva collected for animals receiving the vehicle and each dose of test compound is calculated. […] Results are calculated using result means (n=3 or greater). […]

Turning to `NC(=O)C(c1ccccc1)(c1ccccc1)[C@@H]1CCN(CCC(=O)NCCCCCNC[C@H](O)c2ccc(O)c3[nH]c(=O)ccc23)C1` [Example 3, 3-[(S)-3-(Carbamoyldiphenylmethyl)pyrrolidin-1-yl]-N-{5-[(R)-2-hydroxy-2-(8-hydroxy-2-oxo-1,2-dihydroquinolin-5-yl)ethylamino]pentyl}propionamide], the apparent lung-selectivity index entry is recorded as “greater than 5”.
